{"source": "patent US20230251203A1", "about": "“METHOD FOR EVALUATING ADVERSE REACTION OF SESQUITERPENOIDS IN ZEDOARY TURMERIC OIL” (BEIJING FRIENDSHIP HOSPITAL, CAPITAL MEDICAL UNIVERSITY, priority 2021, published 2023)", "key": {"[1]": {"system": "SD male rats", "assay": "Influences of β-elemene on blood gas when causing dyspnea of rats (abdominal aortic blood, blood-gas analyzer)", "format": "in vivo, rat", "conditions": "BE 1.5 mg/mL", "description": "Preparation of a BE solution: BE reference substances were precisely weighed and dissolved by 8.8% Tween 80 solution and prepared into a BE solution having a concentration of 1.5 mg/mL.\n12 pieces of SPF-grade SD male rats (6 weeks of age, weight: 200±25 g) were taken; and these rats were purchased from Beijing Vital River Laboratory Animal Technology Co., Ltd, production license number: SCXK (J.) 2016-0006.Animal experiments involved in the research process were approved by Ethics Committee. The feeding conditions of the experimental rats are as follows: standard illumination-dark period is 12 h, temperature is 22±1° C., and relative humidity is 60±5%.\nThe rats were randomly divided into 2 groups, 6 pieces each group. The rats were adaptively fed with common fodders for one week. Then the rats were subjected to overnight fasting (12 h), and then intraperitoneally injected with chloral hydrate (10 mg/mL, 4 mL/kg) for anesthetization. After anesthetization, the two groups were respectively injected with BE and normal saline via caudal vein with an administration volume of 6 mL/kg.\nAfter administration, abdominal aortic blood was taken and immediately analyzed with a blood-gas analyzer."}, "[2]": {"target": "T1, hemoglobin (Hb) (Homo sapiens, UniProt P68871+P69905)", "T1 construct": "purchased Sigma H7379", "T1 sequence (P69905 2-142 limits assumed)": "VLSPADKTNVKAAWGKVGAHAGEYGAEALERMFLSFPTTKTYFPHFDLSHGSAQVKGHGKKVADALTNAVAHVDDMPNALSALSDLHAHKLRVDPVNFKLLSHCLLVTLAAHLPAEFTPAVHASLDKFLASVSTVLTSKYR", "T1 sequence (P68871 2-147 limits assumed)": "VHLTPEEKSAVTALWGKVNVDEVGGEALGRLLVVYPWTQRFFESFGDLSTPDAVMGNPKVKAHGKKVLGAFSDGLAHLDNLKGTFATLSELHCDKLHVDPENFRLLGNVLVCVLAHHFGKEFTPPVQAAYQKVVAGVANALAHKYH", "assay": "Surface plasmon resonance (SPR) interaction between β-elemene and hemoglobin", "format": "binding", "conditions": "Hb coupled on chip, BE 0.78-100.00 μM, FIGS. 8-9", "description": "Surface plasmon resonance (SPR) technology was used to verify the interaction between β-elemene and hemoglobin. […] It is generally acknowledged that KD of binding protein to small molecules has an acceptable scope of 10^−4-10^−6M.\n(1) Preparation of a Hb solution: a proper amount of Hb was weighed precisely and prepared into a solution having a concentration of 1 mg/mL with ultrapure water, then 20-fold diluted by pH 4.5 acetic acid for further use;\n(2) PBS-P+10× was prepared into PBS-P+2.1× with ultrapure water, then a proper amount of DMSO was taken and prepared into PBS 2× containing 5% DMSO+0.1% Tween 20, and filtered for further use;\n(3) A proper amount of BE reference substances were weighed precisely and dissolved into DMSO to be prepared into 10 mM solution, then the solution was diluted with PBS-P+2.1× to a reference substance solution containing 5% DMSO; and then the reference substance solution was diluted successively by 2× PBS-P+ to 100.00 μM, 50.00 μM, 25.00 μM, 12.50 μM, 6.25 μM, 3.12 μM. 1.56 μM and 0.78 μM and vortexed for 1 min, and then filtered by 0.22 μm filter membrane for further use.\n(1) Chip activation: carboxyl (channels 1 and 2) on a chip was activated by EDC/NHS;\n(2) the channel 2 was selected and coupled to a certain amount of Hb;\n(3) the activated carboxyl not coupled to proteins on the chip was blocked by ethanolamine; […]"}, "[3]": {"target": "T2, hemoglobin (Hb) α-helix (Homo sapiens, UniProt P68871+P69905)", "T2 construct": "purchased Sigma H7379", "T2 sequence (P69905 2-142 limits assumed)": "as the sequence (P69905 2-142 limits assumed) above", "T2 sequence (P68871 2-147 limits assumed)": "as the sequence (P68871 2-147 limits assumed) above", "assay": "Circular dichroism (CD) influences of β-elemene on Hb structure", "conditions": "Hb 5 μM, BE 1.00-6.25 μM, 25° C.; effect increases with BE concentration; FIG. 10", "description": "A circular dichroism spectrum technology (CD) was used to determine the influences of β-elemene on Hb structure.\nHb mainly presents α-helix at 200-250 nm. If the α-helix structure is changed, so do the shape of CD curve at 200-250 nm. The α-helix content of Hb at 222 nm may be calculated according to the equation (1): […]\nThe mean residue ellipticity (MRE) (degcm^2/dmol) is calculated according to the equation (2): […]\nwhere, Cp is molar concentration (mM) of Hb; n is the number of amino acid residues; l is optical path (mm).\nPreparation of a PBS solution: a proper amount of PBS buffer solution was taken and added a small amount of Tween 80, then prepared into a PBS solution containing 0.05% Tween 80.\nPreparation of a Hb solution: a proper amount of Hb was weighed precisely and added a proper amount of PBS containing 0.05% Tween 80, then prepared into Hb having a concentration of 30 μM for further use. […]\n(2) each concentration of sample was placed into a quartz sample pool from small to large (during solution exchange, the sample pool was cleaned by PBS and rinsed with the to-be-detected solution), then the sample pool was put to the sample chamber for detection in turn, and each sample was screened by spectrum for 3 times; […]"}, "[4]": {"target": "T1, hemoglobin (Hb)", "assay": "UV absorbance of hemoglobin after interaction with sample (r value, dyspnea risk evaluation)", "description": "Preparation of Hb solution: a proper amount of Hb was precisely weighed and dissolved by normal saline (ultrasonic treatment for 30 s), and prepared into a solution having a concentration of 2 mg/mL.\nPreparation of a BE solution: BE reference substance is precisely weighed and dissolved by 8.8% Tween 80 solution and prepared into a solution having a concentration of 1.5 mg/mL.\n100 μL Hb solution was added to wells of a 96-well plate, and 100 μL BE sample solution, 100 μL 8.8% Tween 80 solution or 100 μL normal saline (as blank control) were successively added to the wells added with Hb solution. Each sample was repeated with 3 wells; then the microwell plate was covered, and the mixed solution was oscillated for 5 s in an oscillator to be mixed well, standing for 10 min at 25° C. A microplate reader was used for detection, and detection conditions were as follows: spectrum scanning was performed at 37° C. and 230-400 nm with a step size of 5 nm. […]\nWhere, OD is an absorbance value of a to-be-detected sample containing sesquiterpenoids in zedoary turmeric oil at a certain concentration at 280 nm after interacting with Hb; ODHb is an absorbance value of normal saline as a blank control at a wavelength of 280 nm after interacting with Hb; r is a ratio of OD to ODHb."}}, "data": [{"smiles": "C=C[C@]1(C)CC[C@@H](C(=C)C)C[C@H]1C(=C)C", "note": "[BE, (1S, 2S, 4R)-1-vinyl-methyl-2,4-di(1-methylvinyl) cyclohexane]", "values": [{"measurement": "partial pressure of arterial oxygen", "setting": "[1]; 6 mL/kg via caudal vein vs normal saline, FIG. 2", "result": "significantly decrease"}, {"measurement": "arterial partial pressure of carbon dioxide", "setting": "[1]; 6 mL/kg via caudal vein vs normal saline, FIG. 3", "result": "significantly decreases"}, {"measurement": "arterial blood pH", "setting": "[1]; 6 mL/kg via caudal vein vs normal saline, FIG. 4", "result": "no significant change"}, {"measurement": "arterial oxygen saturation", "setting": "[1]; 6 mL/kg via caudal vein vs normal saline, FIG. 5", "result": "significantly decrease"}, {"measurement": "total hemoglobin", "setting": "[1]; 6 mL/kg via caudal vein vs normal saline, FIG. 6", "result": "significantly increases"}, {"measurement": "oxyhemoglobin", "setting": "[1]; 6 mL/kg via caudal vein vs normal saline, FIG. 7", "result": "significantly decreases"}, {"measurement": "observed symptoms after administration", "setting": "[1]; 6 mL/kg via caudal vein, recovery after stopping administration", "result": "suffered dyspnea symptoms"}, {"measurement": "Kd", "setting": "[2]", "result": 5.84, "unit": "µM"}, {"measurement": "effect on Hb α-helix (CD curve at 200-250 nm)", "setting": "[3]", "result": "makes Hb α-helix performing helix removal"}, {"measurement": "Hb absorbance within 260-300 nm", "setting": "[4]; 1.5 mg/mL BE solution + 2 mg/mL Hb, 100 μL each, FIG. 11", "result": "significantly increasing"}, {"measurement": "r (ratio of OD to ODHb at 280 nm)", "setting": "[4]; 1.5 mg/mL BE solution, r>1.5 indicates high risk of dyspnea", "result": "≈ 1.8"}]}]}
